# Measured values: article PMC3553074 (PLoS ONE, 2013)
# Counter-ions that a name gives are not always drawn. Like-named read-outs stand apart in the source and are kept apart here.
# Tests used:
# [1] = tested on: E. coli; assay: microbe, parasite or virus in culture; details: Escherichia coli, read-out: E. coli MIC (mM)
# [2] = target: T1, Ec-SspA (Escherichia coli, UniProt P0ACA3); assay: biochemical
# T1 construct: His-tagged from pCA24N-sspA (ASKA library clone), expressed in E. coli
# T1 sequence (P0ACA3 2-212): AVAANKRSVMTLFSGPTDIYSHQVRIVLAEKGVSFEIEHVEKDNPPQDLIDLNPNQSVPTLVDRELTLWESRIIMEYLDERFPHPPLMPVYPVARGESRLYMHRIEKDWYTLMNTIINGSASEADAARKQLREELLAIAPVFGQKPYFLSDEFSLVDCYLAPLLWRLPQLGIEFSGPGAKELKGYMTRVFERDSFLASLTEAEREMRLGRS
# [3] = target: T2, Ft-MglA (Francisella tularensis, UniProt Q5NFG1); assay: biochemical; details: read-out: ΔTm (°C) ^1
# [4] = target: T2, Ft-MglA; assay: biochemical
# [5] = target: T1, Ec-SspA; assay: biochemical; set-up: differential scanning fluorometry with SYPRO Orange, shift of midpoint transition temperature of purified protein
# [6] = target: F. tularensis SCHU S4 SspA fused to the zinc finger DNA binding domain of murine Zif268 (pACTR-sspA-Zif) (F. tularensis SCHU S4); assay: two-hybrid
# [7] = read-out: ΔTm (°C) ^1 / Ft-MglA
# [8] = read-out: ΔTm (°C) ^1 / Ec-SspA
compound,measurement,setting,value
CCc1oc2ccccc2c1C(=O)c1cc(Br)c(O)c(Br)c1 [Benzbromarone],MIC,[1],1 mM
same,ΔTm at 40 µM,[2]; read-out: ΔTm (°C) ^1,30 ± 1.6 °C
O=C(O)c1cc2ccccc2c(Cc2c(O)c(C(=O)O)cc3ccccc23)c1O [Pamoic acid],MIC,[1],0.25 mM
CCN(CC)C(=O)N1CCN(C)CC1 [Diethylcarbamazine citrate],ΔTm at 40 µM,[3],2.1 ± 0.1 °C
same,MIC,[1],1 mM
COC(=O)C1=CCCN(C)C1 [Arecoline hydrobromide],ΔTm at 40 µM,[3],2.8 ± 0.1 °C
same,MIC,[1],0.1 mM
CCCOc1ccc(C(=O)OCCN(CC)CC)cc1N [Proparacaine hydrochloride],ΔTm at 40 µM,[4]; [7],24.5 ± 4.4 °C
same,ΔTm at 40 µM,[5]; [8],27.9 ± 4.3 °C
same,MIC,[1],0.5 mM
C[C@H](CS)C(=O)N1CCC[C@H]1C(=O)O [Captopril],ΔTm at 40 µM,[5]; read-out: ΔTm (°C) ^1,9.2 ± 1.9 °C
same,MIC,[1],1 mM
F. tularensis SCHU S4 MglA fused to the ω subunit of E. coli RNA polymerase (pBR-mglA-ω) (natural protein),decrease of β-galactosidase activity (%) with arecoline hydrobromide,[6],7.8%
same,decrease of β-galactosidase activity (%) with benzbromarone,[6],5.8%
same,decrease of β-galactosidase activity (%) with benzethonium chloride,[6],18.9%
same,decrease of β-galactosidase activity (%) with captopril,[6],16.2%
same,decrease of β-galactosidase activity (%) with diethylcarbamazine citrate,[6],19.3%
same,decrease of β-galactosidase activity (%) with dipyrone,[6],10.3%
same,decrease of β-galactosidase activity (%) with flumequine,[6],12%
same,decrease of β-galactosidase activity (%) with haloperidol,[6],18%
same,decrease of β-galactosidase activity (%) with meclofenamic acid,[6],13.2%
same,decrease of β-galactosidase activity (%) with nabumetone,[6],17.1%
same,decrease of β-galactosidase activity (%) with pamoic acid,[6],15.5%
same,decrease of β-galactosidase activity (%) with proparacaine hydrochloride,[6],9.8%
same,decrease of β-galactosidase activity (%) with quinacrine dihydrochloride,[6],61%
same,decrease of β-galactosidase activity (%) with retinoic acid,[6],31%
same,decrease of β-galactosidase activity (%) with theophylline monohydrate,[6],6.5%
same,decrease of β-galactosidase activity (%) with tolfenamic acid,[6],7.7%
same,decrease of β-galactosidase activity (%) with ursolic acid,[6],16.5%
Cc1c(Cl)cccc1Nc1ccccc1C(=O)O [Tolfenamic acid],ΔTm at 40 µM,[5]; read-out: ΔTm (°C) ^1,11.6 ± 2.7 °C
same,MIC,[1],1 mM
C[C@H]1[C@H](C)CC[C@]2(C(=O)O)CC[C@]3(C)C(=CC[C@@H]4[C@@]5(C)CC[C@H](O)C(C)(C)[C@@H]5CC[C@]43C)[C@H]12 [Ursolic acid],ΔTm at 40 µM,[4]; read-out: ΔTm (°C) ^1,16.3 ± 3.2 °C
same,MIC,[1],1 mM
CCN(CC)CCCC(C)Nc1c2ccc(Cl)cc2nc2ccc(OC)cc12 (centres unmarked) [quinacrine],ΔTm at 40 µM,[4]; [7],2.1 ± 0.9 °C
same,ΔTm at 40 µM,[5]; [8],15.2 ± 1.7 °C
same,MIC,[1],0.2 mM
Cc1ccc(Cl)c(Nc2ccccc2C(=O)O)c1Cl [Meclofenamic acid],MIC,[1],1 mM
same,ΔTm at 40 µM,[2]; read-out: ΔTm (°C) ^1,22.9 ± 4.1 °C
Cn1c(=O)c2nc[nH]c2n(C)c1=O [Theophylline monohydrate],ΔTm at 40 µM,[3],2.3 ± 0.1 °C
same,MIC,[1],0.1 mM
O=C(CCCN1CCC(O)(c2ccc(Cl)cc2)CC1)c1ccc(F)cc1 [Haloperidol],MIC,[1],0.1 mM
CC1CCc2cc(F)cc3c(=O)c(C(=O)O)cn1c23 (centres unmarked) [Flumequine],ΔTm at 40 µM,[4]; read-out: ΔTm (°C) ^1,17.9 ± 2.4 °C
same,MIC,[1],0.1 mM
COc1ccc2cc(CCC(C)=O)ccc2c1 [Nabumetone],ΔTm at 40 µM,[4]; read-out: ΔTm (°C) ^1,13.8 ± 0.1 °C
same,MIC,[1],1 mM
CC1=C(/C=C/C(C)=C/C=C/C(C)=C/C(=O)O)C(C)(C)CCC1 [Retinoic acid],ΔTm at 40 µM,[4]; [7],24.5 ± 3.9 °C
same,MIC,[1],0.5 mM
same,ΔTm at 40 µM,[2]; [8],23.3 ± 3.2 °C
Cc1c(N(C)CS(=O)(=O)O)c(=O)n(-c2ccccc2)n1C [Dipyrone],ΔTm at 40 µM,[5]; read-out: ΔTm (°C) ^1,8.9 ± 1.5 °C
same,MIC,[1],1 mM
